Like-named read-outs stand apart in the source and are kept apart here.
Tests used:
heat stimulus [1] = experiment: mouse hot plate test (Eddy and Leimbach, modified); conditions: for ED50: Mus musculus, read-out: Hot Plate ED50
[2] = mouse hot plate test (Eddy and Leimbach, modified); conditions: mouse, in vivo, LD50 /ED50 H.P.
[3] = analgesic activity and general pharmacology, conventional testing methods; assay type: in vivo; conditions: words
Description: Ten animals are used for each dose level.
Ten animals are used at each dose level.

in vivo [4] = conditions: mouse
intestinal motility = experiment: gastrointestinal motility suppression (Brittain & Collier, modified), charcoal; assay type: in vivo; conditions: mice, words
NARCOTIC ANTAGONISM = experiment: narcotic antagonism (Table IV); assay type: in vivo; conditions: I.P.
Description: (§1) The compounds of this invention were tested for their ability to antagonize narcotic analgesics by two different tests. […] Another test used for narcotic antagonist activity was published by Harris & Pearson. This test is modification of the D'Amour & Smith method.
(§2) In the original method the time required for rats to flick their tails following application of a heat stimulus is taken as a measure of analgesic potency.

morphine analgesia = experiment: antagonism of morphine analgesia (Harris & Pearson, modified D'Amour & Smith); assay type: in vivo; conditions: rats; words
Description: as §1, §2

[5] = phenylbenzoquinone writhing test, rat; assay type: in vivo; conditions: rat, in vivo
Description: (§3) […]. […] Ten animals are used at each dose level.

[6] = test system: phenylbenzoquinone writhing; experiment: phenylbenzoquinone writhing test, rat; assay type: in vivo
Description: as §3

[7] = phenylbenzoquinone writhing test, mouse; assay type: in vivo; conditions: mouse, in vivo
Description: (§7) In addition to the hot plate method, the writhing test described by Sigmund et al., Soc. Exp. Biol. and Med. 95:729 (1957) has been applied in both rats and mice as further indication of analgesics. […] The stimulus of intraperitoneal injection of phenylbenzoquinone results in a writhing syndrome characterized by periodic twisting and stretching of the body with extension of the hind legs. […] The dose of compound protecting 50% of the animals is determined and expressed as the ED50. Ten animals are used at each dose level.

[8] = test system: phenylbenzoquinone writhing; experiment: phenylbenzoquinone writhing test, mouse; assay type: in vivo
Description: as §7

[9] = test system: metrazol induced convulsions; experiment: anticonvulsant activity, pentylenetetrazol (Metrazol) convulsions; assay type: in vivo; conditions: mice, words
in vivo [10] = conditions: for selectivity ratio / LD50: mouse; for LD50 at 48 h: read-out: LD50 (48 hr)
[11] = hypothermic effect, rectal temperature; assay type: in vivo; conditions: mice; words
Description: Rectal temperatures were recorded periodically in mice following administration of 740-222 by oral route.

heat stimulus [12] = experiment: D'Amour Smith Rat Tail Flick; assay type: in vivo; conditions: Rattus norvegicus
Description: as §2

in vivo [13] = conditions: ip
[14] = test system: isolated guinea pig ileum (Histamine); experiment: isolated guinea pig ileum screen, block of histamine (antihistaminic); conditions: for Amount to produce a 50% block of Histamine: isolated guinea pig ileum, 37° C.; for antihistaminic activity compared with diphenhydramine: words
Description: Contractions were elicited by histamine phosphate. The concentration of compound required to block these contractions when added to the tissue bath prior to introduction of histamine is taken as evidence of antihistaminic action.

[15] = test system: oxymorphone induced mydriasis; experiment: antagonism of oxymorphone induced mydriasis; assay type: in vivo, mice; conditions: words
Description: as §1

[16] = test system: pinna reflex, corneal reflex; experiment: pinna / corneal reflex test (Witkin et al.), tranquilizer activity; assay type: in vivo, mouse; conditions: for ratio of ED50 corneal/ED50 pinna: mouse, exceeding unity = tranquilizer type action; for tranquilizer classification from corneal/pinna ratio: words
Description: (§4) A tranquil sedation has been observed in mice, rats, cats and monkeys following administration of these compounds in doses exceeding those that are required for analgesia. In addition further indirect evidence for tranquilizer activity has been obtained by application of a method described by Witkin et al., J. Pharmacol, and Exp. Ther. 126:330 (1959)
This test is based upon observations that the pinna reflex of the mouse is blocked at relatively low doses of major tranquilizer drugs whereas very high doses are needed to block the corneal reflex. A ratio of ED50 corneal/ED50 pinna exceeding unity is taken as evidence of tranquilizer type action. […].

[17] = test system: isolated guinea pig ileum (Acetylcholine); experiment: isolated guinea pig ileum screen, block of acetylcholine
acute toxicity, cat = conditions: in vivo
Description: (§5) Compounds were administered in 2% clearjel as a suspension except in
(§6) Toxicities have only been run with male animals to date.

acute toxicity, rat = conditions: in vivo, sc; Rat s.c.; preliminary result
Description: as §5, §6

in vivo [18] = experiment: in vivo; design: species or system mice, rats, cats and monkeys
Description: as §4

solubility = assay type: physicochemical; conditions: words
[19] = po, Mouse p.o., read-out: LD50 /ED50 Writhing

| SMILES | ED50 (heat stimulus [1]; ip) [mg/kg] | ED50 (heat stimulus [1]; po) [mg/kg] | ED50 (heat stimulus [1]; sc) [mg/kg] | selectivity ratio ([2]; ip, Mouse i.p.) | selectivity ratio ([2]; po, Mouse p.o.) | oral versus parenteral analgesic activity [3] | selectivity ratio (in vivo [4]; ip) | selectivity ratio (in vivo [4]; po) | suppression of intestinal motility (intestinal motility) | antagonism of morphine analgesia (morphine analgesia) | selectivity ratio ([7]; po) | selectivity ratio [7, 19] | ED50 ([8]; po, Mouse p.o.) [mg/kg] | hypothermic effect [11] | Amount to produce a 50% block of Histamine [14] [micrograms] | antihistaminic activity compared with diphenhydramine [14] | antagonism of oxymorphone induced mydriasis [15] | ratio of ED50 corneal/ED50 pinna [16] | tranquilizer classification from corneal/pinna ratio [16] | Amount to produce a 50% block of Acetylcholine [17] [micrograms] | other results |
| --- | --- | --- | --- | --- | --- | --- | --- | --- | --- | --- | --- | --- | --- | --- | --- | --- | --- | --- | --- | --- | --- |
| NC(=O)c1ccccc1NCCN1CCN(c2ccccc2)CC1 [Example I, 2-[2-(4-[1-Phenyl]piperazinyl)ethylamino]-benzamide] | 1.5 | 3 | 4.1 | 670 | > 330 | more active by the parenteral routes than by the oral route | 1.2 | 1.9 | less important | at lower dose levels antagonism of morphine analgesia was observed in rats | 1.9 | > 340 | 2.9 | also effective in this respect | 0.8 | about half as active as the standard | effective in antagonizing oxymorphone induced mydriasis | approximately 0.5 | within the range of ratios expected with sedatives (0.3 to 0.7) | 126 | selectivity ratio ([2]; sc, Mouse s.c.): > 240; analgesic activity compared with morphine, hot plate and writhing tests [3]: approximately equivalent to or slightly more active than morphine; selectivity ratio (in vivo [4]; sc): 2.4; NARCOTIC ANTAGONISM (NARCOTIC ANTAGONISM): Positive; selectivity ratio [5]: 2; selectivity ratio ([5]; Rat Sub. cut, read-out: LD50 /ED50 Writhing): 400; ED50 ([6]; sc, Rat Sub. cut, read-out: Writhing ED50): 2.5 mg/kg; selectivity ratio ([7]; sc): 6.3; selectivity ratio ([7]; sc, Mouse s.c., read-out: LD50 /ED50 Writhing): > 620; ED50 ([8]; sc, Mouse s.c.): 1.6 mg/kg; antagonism of metrazol induced convulsions ([9]; subcutaneous): not effective by the subcutaneous route; selectivity ratio (in vivo [10]): > 300; LD50 (in vivo [10]; read-out: acute toxicity (LD50)): 800 to 1000 mg/kg; ED50 (heat stimulus [12]; sc, Sub. cut., read-out: Rat Tail Flick ED50): > 18 mg/kg; LD50 (in vivo [13]): 800 mg/kg; NOAEL (in vivo [13]): 2 mg/kg |
| O=C1NC(c2ccccc2)N(CCN2CCN(c3ccccc3)CC2)c2ccccc21 (stereo not shown) [Example II, 1-[2-(1-Phenyl-4-piperazinyl)ethyl]-2-phenyl-1,2,3,4-tetrahydro-4-quinazolinone] | 52 | 20 | > 562 | > 17 | > 50 | more active by the oral than the parenteral route | 3.4 | 5 | effective in suppressing intestinal motility in mice | not effective by the subcutaneous route | 9 | > 91 | 11 | effectively reduced body temperature in normal mice | 0.5 | about the same activity as the standard antihistaminic diphenhydramine | slight antagonism of oxymorphone induced mydriasis in mice by the intraperiteneal route only | greater than 10 | classified as possessing tranquilizer activity | 1000 | LD50 at 48 h (acute toxicity, cat; ip, Cat i.p., preliminary result (740-222)): > 1000 mg/kg; LD50 at 48 h (acute toxicity, cat; po, Cat p.o., preliminary result): > 1000 mg/kg; analgesic activity compared with codeine, hot plate (heat stimulus [1]; mice, oral, words): of the same order as codeine; analgesic activity compared with morphine, hot plate (heat stimulus [1]; mice, oral, words): slightly less than morphine; suppression of intestinal motility (intestinal motility; listed as 740-222): reduces gut motility; LD50 at 48 h (acute toxicity, rat): > 1000 mg/kg; selectivity ratio ([5]; po): 7.1; selectivity ratio ([5]; po, Rat p.o., read-out: LD50 /ED50 Writhing): 71; ED50 ([6]; Rattus norvegicus, rats, oral, read-out: dose at which writhing syndrome is 50% blocked): 10 mg/kg; ED50 ([6]; po, Rat p.o., read-out: Writhing ED50): 14 mg/kg; activity relative to morphine, writhing test ([8]; mice): approximately one third; antagonism of metrazol induced convulsions ([9]; oral): able to antagonize these metrazol induced convulsions in mice; LD50 at 48 h (in vivo [10]; ip, Mouse i.p.): > 2500 mg/kg; LD50 (in vivo [10]; mice, all routes tested, read-out: acute toxicity): > 1000 mg/kg; selectivity ratio (in vivo [10]; oral route, read-out: therapeutic index (lethal dose to effective dose)): > 300; LD50 at 48 h (in vivo [10]; po, Mouse p.o.): > 10000 mg/kg; LD50 at 48 h (in vivo [10]; sc, Mouse s.c.): > 1000 mg/kg; selectivity ratio (in vivo [18]): ~10; solubility (solubility): low solubility; ED50 (heat stimulus [12]; po, read-out: D'Amour Smith Rat Tail Flick ED50): > 100 mg/kg |
